Experimental data as given in patent US8513271B2, “Pyrimidine compounds as delta opioid receptor modulators” (Janssen Pharmaceutica, NV, priority 2009, dated 2013).
Read-outs that look alike come from different tables or passages of the source.

Key:
delta opioid receptor [1] = biological target: T1, delta opioid receptor (Mus musculus, UniProt P32300); experiment: [35S]GTPγS binding assay in NG108-15 cell membranes (delta opioid functional assay), 200 nM screen; assay type: biochemical; conditions: for EC50 / GTPγS δ-opioid receptor Rel Efficacy: NG108-15 cell membranes; for EC50: averages if tested more than once; for GTPγS δ-opioid receptor Rel Efficacy: relative efficacy from dose response; for inhibition at 10 µM: read-out: GTPγS δ-opioid receptor % Inh @10 μM
T1 construct: NG108-15 cell membranes were purchased from Applied Cell Sciences (Rockville, Md.); host or cells: NG108-15 cell membranes

delta opioid receptor [2] = biological target: T2, delta opioid receptor (Rattus norvegicus, UniProt P33533); experiment: Rat brain delta opioid receptor binding assay; conditions: rat forebrain, [3H]naltrindole ligand
T2 construct: the forebrains were homogenized in Tris buffer in a Teflon®-glass homogenizer; from tissue; host or cells: forebrain of male Wistar rats, particulate (membrane) preparation

mu opioid receptor = biological target: T3, mu opioid receptor (Rattus norvegicus, UniProt P33535); experiment: Rat brain mu opioid receptor binding assay; conditions: rat forebrain, [3H]DAMGO ligand
T3 construct: the forebrains were homogenized in Tris buffer in a Teflon®-glass homogenizer; from tissue; host or cells: forebrain of male Wistar rats, particulate (membrane) preparation

[3] = read-out: GTPγS δ-opioid receptor EC50
[4] = δ-binding (Naltrindole ligand) Ki
[5] = GTPγS δ-opioid receptor EC50 (μM)
[6] = read-out: δ-binding (Naltrindole ligand) Ki

T1 sequence (P32300 whole entry): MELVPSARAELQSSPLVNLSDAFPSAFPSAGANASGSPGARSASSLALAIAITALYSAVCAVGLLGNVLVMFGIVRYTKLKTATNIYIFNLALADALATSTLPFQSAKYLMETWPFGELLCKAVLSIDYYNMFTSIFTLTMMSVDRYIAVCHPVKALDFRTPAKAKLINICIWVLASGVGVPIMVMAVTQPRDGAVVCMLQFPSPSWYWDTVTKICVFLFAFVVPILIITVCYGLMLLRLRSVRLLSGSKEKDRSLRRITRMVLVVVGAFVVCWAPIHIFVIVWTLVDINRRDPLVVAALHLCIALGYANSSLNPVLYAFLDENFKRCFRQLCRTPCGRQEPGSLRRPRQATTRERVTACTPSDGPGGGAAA
T2 sequence (P33533 whole entry): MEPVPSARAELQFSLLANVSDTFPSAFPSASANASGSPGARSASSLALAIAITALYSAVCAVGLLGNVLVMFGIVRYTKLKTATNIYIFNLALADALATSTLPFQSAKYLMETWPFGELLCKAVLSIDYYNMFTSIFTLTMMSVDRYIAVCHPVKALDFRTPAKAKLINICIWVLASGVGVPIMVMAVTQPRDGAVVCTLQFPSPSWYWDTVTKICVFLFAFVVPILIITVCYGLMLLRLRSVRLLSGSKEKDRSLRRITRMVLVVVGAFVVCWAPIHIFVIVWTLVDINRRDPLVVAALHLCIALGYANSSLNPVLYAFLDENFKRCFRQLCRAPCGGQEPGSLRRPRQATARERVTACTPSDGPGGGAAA
T3 sequence (P33535 whole entry): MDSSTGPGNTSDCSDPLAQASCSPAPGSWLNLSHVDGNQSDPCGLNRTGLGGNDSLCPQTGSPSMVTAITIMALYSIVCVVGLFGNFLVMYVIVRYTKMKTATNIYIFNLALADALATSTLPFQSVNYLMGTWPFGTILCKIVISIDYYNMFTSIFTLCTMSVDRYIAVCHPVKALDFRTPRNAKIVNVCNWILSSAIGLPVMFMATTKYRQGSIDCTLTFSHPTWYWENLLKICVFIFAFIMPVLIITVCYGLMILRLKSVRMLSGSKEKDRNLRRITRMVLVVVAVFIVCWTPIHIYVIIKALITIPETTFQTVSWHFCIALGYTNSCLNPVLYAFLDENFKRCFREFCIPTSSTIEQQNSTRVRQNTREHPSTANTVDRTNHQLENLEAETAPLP

Structure (SMILES) | Ki (delta opioid receptor [2]; [4]) [nM] | Ki (mu opioid receptor; read-out: μ-binding Ki) [nM] | Ki (delta opioid receptor [2]; [6]) [nM] | further results
COc1ccc(Oc2nc(-c3cnn(C)c3)ncc2NC[C@@H]2CCCN2)cc1 [Cpd 67] | 1 | 1560 | – | EC50 (delta opioid receptor [1]; [3]): 0.194 µM
CCOc1ccc(Oc2nc(-c3cncc(C#N)c3)ncc2NC[C@@H]2CCCN2)cc1 [Cpd 104] | 8 | – | – | EC50 (delta opioid receptor [1]; [5]): 0.018 µM; GTPγS δ-opioid receptor Rel Efficacy (delta opioid receptor [1]): 0.921; Ki (mu opioid receptor; μ-binding Ki): 190 nM
COc1ccc(Oc2nc(-c3cncc(C#N)c3)ncc2NC[C@H]2CCCC[C@@H]2N)cc1 [Cpd 299] | 23 | 222 | – | EC50 (delta opioid receptor [1]; [3]): 0.129 µM
CCOc1ncc(-c2ncc(NC[C@@H]3CCCN3)c(Oc3ccc(OC)cc3)n2)cn1 [Cpd 60] | 14 | – | – | EC50 (delta opioid receptor [1]; [5]): 0.089 µM; inhibition at 10 µM (delta opioid receptor [1]): 3.73%; GTPγS δ-opioid receptor Rel Efficacy (delta opioid receptor [1]): 0.926; Ki (mu opioid receptor; μ-binding Ki): 1520 nM
N#Cc1cncc(-c2ncc(NC[C@@H]3CCCN3)c(Oc3ccc(OC(F)F)cc3)n2)c1 [Cpd 110] | 33 | – | – | EC50 (delta opioid receptor [1]; [5]): 0.081 µM; GTPγS δ-opioid receptor Rel Efficacy (delta opioid receptor [1]): 0.986; Ki (mu opioid receptor; μ-binding Ki): 1070 nM
COc1ccc(Oc2nc(-c3cnc4[nH]ccc4c3)ncc2NC[C@@H]2CCCN2)cc1 [Cpd 77] | – | 313 | 154 | –
COc1ccc(-c2ncc(NC[C@@H]3CCCN3)c(Oc3ccccc3OC)n2)cn1 [Cpd 39] | 67 | 8990 | – | –
COc1ccc(Oc2nc(-c3ccc4nccnc4c3)ncc2NC[C@@H]2CCCN2)cc1 [Cpd 76] | – | 333 | 111 | –
COc1ccc(Oc2nc(-c3cnc(N4CCOCC4)nc3)ncc2NC[C@@H]2CCCN2)cc1 [Cpd 83] | 14 | 673 | – | –
COc1ccc(Oc2nc(-c3cccc(N)c3)ncc2NC[C@@H]2CCCN2)cc1 [Cpd 45] | – | 812 | 11 | –
COc1ccc(Oc2nc(-c3cn[nH]c3)ncc2NC[C@@H]2CCCN2)cc1 [Cpd 65] | – | 555 | 3 | EC50 (delta opioid receptor [1]; [3]): 0.339 µM; GTPγS δ-opioid receptor Rel Efficacy (delta opioid receptor [1]): 0.824
COc1ccc(Oc2nc(-c3cccc(C#N)c3)ncc2NC[C@@H]2CCCN2)cc1 [Cpd 28] | 6.1 | 295 | – | –
COc1ccc(Oc2nc(-c3cccc4cccnc34)ncc2NC[C@@H]2CCCN2)cc1 [Cpd 17] | 30 | 3080 | – | –
COc1ccc(Oc2nc(-c3ccn[nH]3)ncc2NC[C@@H]2CCCN2)cc1 [Cpd 61] | – | 3990 | 259 | –
COc1ccc(Oc2nc(-c3ccc(N)nc3)ncc2NC[C@@H]2CCCN2)cc1 [Cpd 72] | – | 732 | 2 | EC50 (delta opioid receptor [1]; [3]): 0.105 µM; inhibition at 10 µM (delta opioid receptor [1]): 15.2%; GTPγS δ-opioid receptor Rel Efficacy (delta opioid receptor [1]): 0.905
Oc1ccc(Oc2nc(-c3ccc(O)nc3)ncc2NCC2CCCN2)cc1 (stereo not shown) [Cpd 75] | 36 | 5120 | – | –

Structure (SMILES) | Ki (delta opioid receptor [2]; [4]) [nM] | Ki (mu opioid receptor; read-out: μ-binding Ki) [nM] | Ki (delta opioid receptor [2]; [6]) [nM] | further results
COc1ccc(Oc2nc(-c3cnc(N)nc3)ncc2NC[C@@H]2CCCN2)cc1 [Cpd 81] | – | 569 | 355 | –
COc1ccc(Oc2nc(-c3cnc(C#N)nc3)ncc2NC[C@@H]2CCCN2)cc1 [Cpd 121] | 20 | – | – | EC50 (delta opioid receptor [1]; [5]): 0.019 µM; GTPγS δ-opioid receptor Rel Efficacy (delta opioid receptor [1]): 1.010; Ki (mu opioid receptor; μ-binding Ki): 379 nM
COc1ccc(Oc2nc(-c3cncnc3)ncc2NC[C@@H]2C[C@@H](F)CN2)cc1 [Cpd 80] | 2 | 106 | – | EC50 (delta opioid receptor [1]; [3]): 0.113 µM
COc1ccc(Oc2nc(-c3cnc(OC)nc3OC)ncc2NC[C@@H]2CCCN2)cc1 [Cpd 58] | 4 | 640 | – | EC50 (delta opioid receptor [1]; [3]): 1.51 µM; inhibition at 10 µM (delta opioid receptor [1]): 12.8%
COc1ccc(Oc2nc(-c3cccc4ccccc34)ncc2NC[C@@H]2CCCN2)cc1 [Cpd 5] | – | > 10000 | 157 | EC50 (delta opioid receptor [1]; [3]): 0.164 µM; inhibition at 10 µM (delta opioid receptor [1]): 18.1%; GTPγS δ-opioid receptor Rel Efficacy (delta opioid receptor [1]): 0.803
COc1ccc(Oc2nc(-c3cccc(C(F)(F)F)c3)ncc2NC[C@@H]2CCCN2)cc1 [Cpd 50] | 55 | 597 | – | –
COc1ccc(Oc2nc(-c3ccc4ccccc4c3)ncc2NC[C@@H]2CCCN2)cc1 [Cpd 6] | – | 9010 | 116 | –
COc1ccc(Oc2nc(-c3nc4ccccc4s3)ncc2NC[C@@H]2CCCN2)cc1 [Cpd 47] | 6 | 1130 | – | –
CCOc1ccc(Oc2nc(-c3cncnc3)ncc2NC[C@@H]2CCCN2)cc1 [Cpd 105] | 3 | 421 | – | EC50 (delta opioid receptor [1]; [3]): 0.146 µM
COc1ccc(Oc2nc(-c3ccoc3)ncc2NC[C@@H]2CCCN2)cc1 [Cpd 10] | 34 | 2000 | – | –
COc1ccc(Oc2nc(-c3cccc(S(C)(=O)=O)c3)ncc2NC[C@@H]2CCCN2)cc1 [Cpd 32] | 12.6 | – | – | Ki (mu opioid receptor; μ-binding Ki): 64.1 nM
CC(=O)Nc1ccc(Oc2nc(-c3cccnc3)ncc2NC[C@@H]2CCCN2)cc1 [Cpd 13] | – | 5570 | 2 | –
NC(=O)c1ccc(Oc2nc(-c3cccnc3)ncc2NC[C@@H]2CCCN2)cc1 [Cpd 12] | 18 | 4520 | – | –
COc1ccc(Oc2nc(-c3cnc(N4CCN(C)CC4)nc3)ncc2NC[C@@H]2CCCN2)cc1 [Cpd 84] | – | 338 | 16 | –
COc1ccc(-c2ncc(NC[C@@H]3CCCN3)c(Oc3ccc(N)cc3)n2)cn1 [Cpd 44] | – | 2690 | 4 | –
